Values quoted from earlier work as cited in patent US8555875B2, “Inhalation devices and related methods for administration of sedative hypnotic compounds” (Map Pharmaceuticals, Inc., priority 2008, dated 2013).

How the values were obtained:
[1] = in vivo
[2] = in vivo; remark: listed apart in the source
[3] = test system: melatonin receptor MT1/MT2; details: metabolite MII versus ramelteon

SMILES	Duration of Action [1]	Half Life [2]	mean functional activity, times lower potency than ramelteon [3]
CN1CCN(C(=O)OC2c3nccnc3C(=O)N2c2ccc(Cl)cn2)CC1 (single isomer, unassigned) [Eszopiclone, 6-(5-chloro-2-pyridyl)-5[(4-methyl-1-piperazinyl)carbonyloxy]-7-oxo-6,7-di hydro-5H-pyrrolo[3,4-b]pyrazine]	8 h	6 h	–
Cc1nnc2n1-c1ccc(Cl)cc1C(c1ccccc1)=NC2 [Alprazolam]	<6 h	9 to 14 h	–
CNC1=Nc2ccc(Cl)cc2C(c2ccccc2)=[N+]([O-])C1 [Chlordiazepoxide]	–	7 to 13 h	–
O=C1CN=C(c2ccccc2Cl)c2cc([N+](=O)[O-])ccc2N1 [Clonazepam]	24 to 28 h	18 to 28 h	–
CN1C(=O)CN=C(c2ccccc2)c2cc(Cl)ccc21 [Diazepam]	24 to 28 h	–	–
CCN(CC)CCN1C(=O)CN=C(c2ccccc2F)c2cc(Cl)ccc21 [Flurazepam]	24 to 28 h	50 to 100 h	–
O=C1Nc2ccc(Cl)cc2C(c2ccccc2Cl)=NC1O (centres unmarked) [Lorazepam]	12 to 18 h	9 to 19 h	–
CN1C(=O)C(O)N=C(c2ccccc2Cl)c2cc(Cl)ccc21 (centres unmarked) [Lormetazepam]	12 to 18 h	10 h	–
CC(O)C(=O)NCCC1CCc2ccc3c(c21)CCO3 (centres unmarked) [MII]	–	–	21 times
Cc1ncc2n1-c1ccc(Cl)cc1C(c1ccccc1F)=NC2 [Midazolam]	4 h	1.3 to 2.5 h	–
O=C1CN=C(c2ccccc2)c2cc([N+](=O)[O-])ccc2N1 [Nitrazepam]	24 h	28 h	–
CN1C(=O)C(O)N=C(c2ccccc2)c2cc(Cl)ccc21 (centres unmarked) [Temazepam]	12 to 18 h	–	–
Cc1nnc2n1-c1ccc(Cl)cc1C(c1ccccc1Cl)=NC2 [Triazolam]	<6 h	2 to 4 h	–
Cc1ccc(-c2nc3ccc(C)cn3c2CC(=O)N(C)C)cc1 [Zolpidem]	<4 h	–	–
